The target in data set [1] is T1, TG2 (Homo sapiens, UniProt P21980).
T1 sequence (P21980 1-687): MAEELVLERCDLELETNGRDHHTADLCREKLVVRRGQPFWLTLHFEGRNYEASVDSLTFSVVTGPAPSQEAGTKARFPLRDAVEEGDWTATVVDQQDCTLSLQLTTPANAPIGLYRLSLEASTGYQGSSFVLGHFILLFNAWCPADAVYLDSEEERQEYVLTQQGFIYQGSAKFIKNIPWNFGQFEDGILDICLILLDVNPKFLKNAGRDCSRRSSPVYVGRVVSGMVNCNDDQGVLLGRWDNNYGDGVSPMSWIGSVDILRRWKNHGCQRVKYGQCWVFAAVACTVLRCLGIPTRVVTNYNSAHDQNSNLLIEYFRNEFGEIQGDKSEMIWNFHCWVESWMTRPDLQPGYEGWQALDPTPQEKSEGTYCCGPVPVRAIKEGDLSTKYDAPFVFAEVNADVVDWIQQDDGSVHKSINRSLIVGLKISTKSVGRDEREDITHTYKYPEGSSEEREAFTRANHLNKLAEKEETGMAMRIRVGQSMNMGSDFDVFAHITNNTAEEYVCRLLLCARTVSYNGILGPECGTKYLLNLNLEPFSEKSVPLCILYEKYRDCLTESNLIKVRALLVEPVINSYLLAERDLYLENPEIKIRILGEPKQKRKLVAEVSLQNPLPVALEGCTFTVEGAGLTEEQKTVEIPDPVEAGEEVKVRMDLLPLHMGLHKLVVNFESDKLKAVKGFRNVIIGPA
In words: glutamate dehydrogenase-coupled deamidation assay, substrate Cbz-Gln-Gly. As to conditions: irreversible inhibition model, full progress curves. Format: biochemical.

In data set [2] the target is T2, TG1 (Homo sapiens, UniProt P22735).
T2 sequence (P22735 1-817): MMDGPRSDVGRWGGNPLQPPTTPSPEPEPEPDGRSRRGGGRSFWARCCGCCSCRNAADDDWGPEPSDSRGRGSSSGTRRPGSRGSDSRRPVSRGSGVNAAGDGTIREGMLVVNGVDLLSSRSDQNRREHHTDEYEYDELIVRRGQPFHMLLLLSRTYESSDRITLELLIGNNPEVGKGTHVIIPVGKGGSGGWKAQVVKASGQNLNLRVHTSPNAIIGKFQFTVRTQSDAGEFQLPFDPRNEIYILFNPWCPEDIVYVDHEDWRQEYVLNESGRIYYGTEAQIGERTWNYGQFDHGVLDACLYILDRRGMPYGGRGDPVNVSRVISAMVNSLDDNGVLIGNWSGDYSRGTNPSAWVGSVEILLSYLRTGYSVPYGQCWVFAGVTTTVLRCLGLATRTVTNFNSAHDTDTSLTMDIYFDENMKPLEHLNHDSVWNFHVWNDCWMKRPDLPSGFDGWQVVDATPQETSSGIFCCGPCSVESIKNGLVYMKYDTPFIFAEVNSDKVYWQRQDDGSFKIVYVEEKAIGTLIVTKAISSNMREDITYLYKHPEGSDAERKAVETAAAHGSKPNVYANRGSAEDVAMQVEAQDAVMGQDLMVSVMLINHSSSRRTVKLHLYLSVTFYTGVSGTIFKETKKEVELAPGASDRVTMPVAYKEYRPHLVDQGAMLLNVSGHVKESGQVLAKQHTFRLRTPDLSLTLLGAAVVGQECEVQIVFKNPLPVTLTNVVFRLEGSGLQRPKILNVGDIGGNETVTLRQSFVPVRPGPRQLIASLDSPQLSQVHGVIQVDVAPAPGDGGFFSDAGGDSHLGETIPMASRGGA
Put plainly: glutamate dehydrogenase-coupled deamidation assay, substrate Cbz-Gln-Ser. Format: biochemical. As to conditions: irreversible inhibition model, full progress curves.

Data set [3] concerns proinflammatory cytokines IL-6, PAI-1 and MIP1α. In words: circulating proinflammatory cytokines in LPS-induced murine sepsis (ELISA). Format: in vivo, mice. As to conditions: septic mice (LPS 5 mg/kg iv); 1.5 mg/kg ip level; plasma at 3 hours. As for the experimental part: FIG. 3: The TG2 inhibitor CK996 reduces the proinflammatory cytokine load in septic mice at doses as low as 1.5 mg/kg: The graphs display the absolute circulating levels of the proinflammatory cytokines IL-6, PAI-1 and MIP1α in septic male BL6 mice as a function of the dose of intraperitoneally administered CK996 or ERW1041E. In each graph, the right y-axis depicts the relative levels of the respective cytokines over their background level in our control cohort. All septic mice in this study received lipopolysaccharide (LPS, 5 mg/kg i.v., at t=0) and either a TG2 inhibitor (CK996 or ERW1041E at 50, 15, 5.0 and 1.5 mg/kg i.p., at t=0 and 60 min) in vehicle (PBS with 5% DMSO, 2% Tween-80 and 2.5% hydroxypropyl-beta-cyclodextrin) or, for the septic control cohort, vehicle alone. An additional cohort defining the baseline cytokine levels received only intravenous vehicle and intraperitoneal inhibitor vehicle, respectively. At 3 hours the mice were euthanized and plasma collected in lithium heparin tubes. The levels of the respective proinflammatory cytokines were quantified using commercial ELISA kits according to the manufacturers' instructions. […]
Having established that intraperitoneal administration of CK996 could suppress TG2 activity in septic mice, we next sought to determine whether this pharmacologic intervention had any effect on the circulating levels of the key proinflammatory cytokines in sepsis. To this end, we administered CK996 in doses of 1.5, 5.0, 15 or 50 mg/kg intraperitoneally to septic mice (5 mg/kg LPS, iv) and measured the level of the proinflammatory cytokines IL-6, PAI-1 and MIP1α in plasma that was collected at 3 hours after infusion of LPS.
We therefore co-administered recombinant human thioredoxin protein (10 mg/kg, ip) along with CK996 (50 mg/kg, ip) to septic mice (5 mg/kg, iv) and quantified the load of proinflammatory cytokines as above.
On the technique in general: ELISA stands for enzyme-linked immunosorbent assay.

In data set [4] the target is T1, TG2. As to conditions: cited from earlier work.
The target in data set [5] is T2, TG1. Particulars: cited from earlier work.
Data set [6] has as its target T3, TG2 (Mus musculus, UniProt P21981).
T3 construct: host or cells: mice (in vivo)
T3 sequence (P21981 1-686): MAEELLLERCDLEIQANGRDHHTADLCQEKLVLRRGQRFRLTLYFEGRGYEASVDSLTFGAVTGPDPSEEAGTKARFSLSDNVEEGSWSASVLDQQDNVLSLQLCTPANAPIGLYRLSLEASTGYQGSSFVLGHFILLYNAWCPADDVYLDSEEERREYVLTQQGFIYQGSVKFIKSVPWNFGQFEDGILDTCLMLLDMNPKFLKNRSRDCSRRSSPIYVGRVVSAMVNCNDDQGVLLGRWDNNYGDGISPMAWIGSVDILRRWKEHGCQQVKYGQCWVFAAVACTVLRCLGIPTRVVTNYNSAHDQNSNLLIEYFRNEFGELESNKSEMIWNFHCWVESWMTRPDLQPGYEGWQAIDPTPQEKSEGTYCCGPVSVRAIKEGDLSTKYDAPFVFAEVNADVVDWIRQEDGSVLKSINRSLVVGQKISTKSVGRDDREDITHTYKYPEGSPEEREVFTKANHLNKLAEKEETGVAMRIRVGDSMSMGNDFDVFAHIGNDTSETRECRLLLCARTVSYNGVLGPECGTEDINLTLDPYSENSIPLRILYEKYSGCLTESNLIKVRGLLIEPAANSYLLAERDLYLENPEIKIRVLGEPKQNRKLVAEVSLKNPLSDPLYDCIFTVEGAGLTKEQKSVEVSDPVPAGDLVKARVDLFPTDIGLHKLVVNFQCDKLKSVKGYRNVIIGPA
As to conditions: poly-I:C induced intestinal injury in mice; cited from earlier work.

Data set [7] concerns the target T3, TG2. As to conditions: cited from earlier work.
The target of data set [8] is T1, TG2. As to conditions: cell culture; cited from earlier work.

Where two headings read alike, the source gives them in different places.

As for `O=C(NC[C@@H]1CC(Br)=NO1)[C@@H]1C[C@@H](c2ccc(O)cc2)CN1C(=O)OCc1cnc2ccccc2c1` [Compound 12, (2S,4S)-quinolin-3-ylmethyl 2-((((S)-3-bromo-4,5-dihydroisoxazol-5-yl)methyl)carbamoyl)-4-(4-hydroxyphenyl)pyrrolidine-1-carboxylate], at TG2 [1], the “kinh/Ki TG2” value came to 1520 M⁻¹ s⁻¹. Further, the “kinh/Ki TG1” value on TG1 [2] came to 1510 M⁻¹ s⁻¹.
The matching figures for `O=C(NC[C@@H]1CC(Br)=NO1)[C@@H]1C[C@@H](c2cccc(O)c2)CN1C(=O)OCc1cnc2ccccc2c1` [Compound 11, (2S,4S)-quinolin-3-ylmethyl 2-((((S)-3-bromo-4,5-dihydroisoxazol-5-yl)methyl)carbamoyl)-4-(3-hydroxyphenyl)pyrrolidine-1-carboxylate]: 870 M⁻¹ s⁻¹ and 645 M⁻¹ s⁻¹.
As for `O=C(NC[C@@H]1CC(Br)=NO1)[C@@H]1CCCN1C(=O)OCc1cnc2ccccc2c1` [ERW1041E], the “circulating levels of IL-6, PAI-1 and MIP1α” value in data set [3] is listed as “no effect”. In addition, on TG2 [4], the “potency as inhibitor of TG2” value was “moderately potent”. Further, the “potency against TG1 relative to TG2” value on TG1 [5] is on record as “comparably potent”. The “catalytic activity of TG2” value on TG2 [6], at TG2 [7] (hypoxia-induced murine pulmonary hypertension) and at TG2 [8] was “capable of blocking the catalytic activity of TG2” throughout. Moreover, at TG2 [7] (twice daily administration for several weeks), the tolerability entry was “well tolerated”.
Take `O=C(NC[C@@H]1CC(Br)=NO1)[C@@H]1C[C@@H](NC(=O)C2(C(=O)O)CCC2)CN1C(=O)OCc1cnc2ccccc2c1` [Compound 7, 1-(((3R,5S)-5-((((S)-3-bromo-4,5-dihydroisoxazol-5-yl)methyl)carbamoyl)-1-((quinolin-3-ylmethoxy)carbonyl)pyrrolidin-3-yl)carbamoyl)cyclobutanecarboxylic acid]: the “kinh/Ki TG2” value on TG2 [1] is 230 M⁻¹ s⁻¹. Further, the “kinh/Ki TG1” value at TG1 [2] was 96.7 M⁻¹ s⁻¹.
Taken in the same sequence, the figures for `O=C(NC[C@@H]1CC(Br)=NO1)[C@@H]1C[C@H](c2ccccc2)CN1C(=O)OCc1cnc2ccccc2c1` [Compound 9, (2S,4R)-quinolin-3-ylmethyl 2-((((S)-3-bromo-4,5-dihydroisoxazol-5-yl)methyl)carbamoyl)-4-phenylpyrrolidine-1-carboxylate] were 295 M⁻¹ s⁻¹ and 287 M⁻¹ s⁻¹.
In the case of `O=C(NC[C@@H]1CC(Br)=NO1)[C@@H]1C[C@@H](c2ccccc2)CN1C(=O)OCc1cnc2ccccc2c1` [Compound 8, (2S,4S)-quinolin-3-ylmethyl 2-((((S)-3-bromo-4,5-dihydroisoxazol-5-yl)methyl)carbamoyl)-4-phenylpyrrolidine-1-carboxylate], the “kinh/Ki TG2” value on TG2 [1] was 810 M⁻¹ s⁻¹. In addition, on TG1 [2], the “kinh/Ki TG1” value was 1100 M⁻¹ s⁻¹.

(Values after patent US10010541B2, “Modulation of tissue transglutaminase activation in disease” (The Board of Trustees of the Leland Stanford Junior …, priority 2014, dated 2018).)
